Source: ChEMBL document CHEMBL3407355, “Understanding the importance of glycosylated threonine and stereospecific action of Drosocin, a Proline rich antimicrobial peptide” (Eur J Med Chem, 2015)
Values after ≈ are worked out from the molar mass of the structure shown. Active and inactive are the calls of the source. The calls are words filed in the database; no cut-off is given here. Where a SMILES comes first, the peptide text is derived from it. The star is where a group is joined. αGalNAc = CC(=O)N[C@@H]1[C@@H](O)[C@@H](O)[C@@H](CO)O[C@@H]1*; X1 = CC(=O)N[C@H]1[C@H](O)[C@H](O)[C@H](CO)O[C@H]1*

Key:
Escherichia coli [1] = test: Antimicrobial activity against Escherichia coli ATCC 25922 by broth microdilution assay; assay type: functional
[2] = Binding affinity to Escherichia coli His-tagged recombinant […] binding domain of DnaK by […] Plasmon resonance assay
Escherichia coli [3] = test: Antimicrobial activity against Escherichia coli ATCC 35218 by broth microdilution assay; assay type: functional
Escherichia coli [4] = test: Binding affinity to Escherichia coli His-tagged recombinant […] binding domain of DnaK assessed as rate constant by […] Plasmon resonance assay
Escherichia coli [5] = test: Drug uptake in Escherichia coli ATCC 25922 assessed as cellular internalization after 30 mins by FACS analysis; assay type: ADME, organism-based; conditions: in vivo, 0.5 h
Salmonella typhimurium = test: Antimicrobial activity against Salmonella typhimurium ATCC 14028 by broth microdilution assay; assay type: functional, Salmonella enterica subsp. enterica serovar Typhimurium; conditions: Salmonella enterica
Escherichia coli [6] = test: Antimicrobial activity against Escherichia coli ATCC 11775 by broth microdilution assay; assay type: functional
Escherichia coli [7] = test: Inhibition of protein biosynthesis in Escherichia coli ATCC 25922 assessed as incorporation of [35S]methionine into protein at 10 times of MIC concentration by in-vivo translation assay; assay type: functional, organism-based
Escherichia coli [8] = test: Inhibition of RNA biosynthesis in Escherichia coli ATCC 25922 assessed as incorporation of [3H]uridine into RNA at 10 times of MIC concentration by in-vivo transcription assay; assay type: functional, organism-based
Escherichia coli [9] = test: In-vitro inhibition of luciferase reporter gene translation in Escherichia coli S30 extract at 200 ng by transcription/translation assay; assay type: functional
Salmonella typhi = test: Antimicrobial activity against Salmonella typhi Vi+ by broth microdilution assay; assay type: functional, Salmonella enterica subsp. enterica serovar Typhi; conditions: Salmonella enterica
Escherichia coli [10] = test: Inhibition of protein biosynthesis in Escherichia coli ATCC 25922 assessed as incorporation of [35S]methionine into protein at 2.5 ug/300 ul by in-vivo translation assay; assay type: functional, organism-based

Which MIC (Escherichia coli [1]) does the source give for `CC[C@@H](C)[C@@H](NC(=O)[C@H]1CCCN1C(=O)[C@@H](CCCNC(=N)N)NC(=O)[C@H]1CCCN1C(=O)[C@@H](Cc1cnc[nH]1)NC(=O)[C@H]1CCCN1C(=O)[C@H]1CCCN1C(=O)[C@H]1CCCN1C(=O)[C@@H](CCCNC(=N)N)NC(=O)[C@H]1CCCN1C(=O)[C@H]1CCCN1C(=O)[C@@H](Cc1ccc(O)cc1)NC(=O)[C@H]1CCCN1C(=O)[C@@H](CCCNC(=N)N)NC(=O)[C@H]1CCCN1C(=O)[C@@H](CCCCN)NC(=O)CN)C(=O)N[C@H](CCCNC(=N)N)C(=O)N[C@@H](C(=O)O)C(C)C` here?
The MIC was over 200 µM.

What about the Kd [2] of the same compound?
The Kd was 1.47 µM.

What about the MIC (Escherichia coli [3]) of the same compound?
The MIC was over 200 µM.

And the Ka (Escherichia coli [4])?
The Ka was 9.34 ×10⁴ /M/s.

What about the Kdiss (Escherichia coli [4]) of the same compound?
Its Kdiss is 0.0137 s⁻¹.

And the Drug uptake (Escherichia coli [5])?
Its Drug uptake is 2%.

And the MIC (Salmonella typhimurium)?
Its MIC is over 200 µM.

And the MIC (Escherichia coli [6])?
Its MIC is over 200 µM.

What about the inhibition (Escherichia coli [7]) of the same compound?
The inhibition was “inactive”.

And the inhibition (Escherichia coli [8])?
Its inhibition is “inactive”.

And the inhibition (Escherichia coli [9])?
The inhibition was “Active”.

And the MIC (Salmonella typhi)?
The MIC was over 200 µM.

Which results are given for `CC[C@H](C)[C@H](NC(=O)[C@@H]1CCCN1C(=O)[C@H](CCCNC(=N)N)NC(=O)[C@@H]1CCCN1C(=O)[C@H](Cc1cnc[nH]1)NC(=O)[C@@H]1CCCN1C(=O)[C@@H]1CCCN1C(=O)[C@@H]1CCCN1C(=O)[C@H](CCCNC(=N)N)NC(=O)[C@@H]1CCCN1C(=O)[C@@H]1CCCN1C(=O)[C@H](Cc1ccc(O)cc1)NC(=O)[C@@H]1CCCN1C(=O)[C@H](CCCNC(=N)N)NC(=O)[C@@H]1CCCN1C(=O)[C@H](CCCCN)NC(=O)CN)C(=O)N[C@@H](CCCNC(=N)N)C(=O)N[C@H](C(=O)O)C(C)C`?
MIC (Escherichia coli [1]): 0.3 µM (≈ 0.664 µg/mL); Kd [2]: 1.49 µM; MIC (Escherichia coli [3]): 0.2 µM (≈ 0.443 µg/mL); Ka (Escherichia coli [4]): 2.45 ×10⁴ /M/s; Kdiss (Escherichia coli [4]): 0.0366 s⁻¹; MIC (Salmonella typhimurium): 0.6 µM (≈ 1.33 µg/mL); MIC (Escherichia coli [6]): 0.3 µM (≈ 0.664 µg/mL); inhibition (Escherichia coli [7]): Active; inhibition (Escherichia coli [9]): Active; MIC (Salmonella typhi): 0.6 µM (≈ 1.33 µg/mL)

Which inhibition (Escherichia coli [10]) does the source give for `CN(C)[C@@H]1C(O)=C(C(N)=O)C(=O)[C@@]2(O)C(O)=C3C(=O)c4c(O)cccc4[C@@](C)(O)[C@H]3C[C@@H]12` here?
Its inhibition is “Active”.

For `CC[C@H](C)[C@H](NC(=O)[C@@H]1CCCN1C(=O)[C@H](CCCNC(=N)N)NC(=O)[C@@H]1CCCN1C(=O)[C@H](Cc1cnc[nH]1)NC(=O)[C@H](CO)NC(=O)[C@H](CO[C@H]1O[C@H](CO)[C@H](O)[C@H](O)[C@H]1NC(C)=O)NC(=O)[C@@H]1CCCN1C(=O)[C@H](CCCNC(=N)N)NC(=O)[C@@H]1CCCN1C(=O)[C@H](CO)NC(=O)[C@H](Cc1ccc(O)cc1)NC(=O)[C@@H]1CCCN1C(=O)[C@H](CCCNC(=N)N)NC(=O)[C@@H]1CCCN1C(=O)[C@H](CCCCN)NC(=O)CN)C(=O)N[C@@H](CCCNC(=N)N)C(=O)N[C@H](C(=O)O)C(C)C` (H-GKPRPYSPRPS(αGalNAc)SHPRPIRV-OH), which MIC (Escherichia coli [1]) is on record?
Its MIC is 1.1 µM (≈ 2.63 µg/mL).

And the MIC (Escherichia coli [3])?
Its MIC is 0.5 µM (≈ 1.19 µg/mL).

And the MIC (Salmonella typhimurium)?
The MIC was 6 µM (≈ 14.3 µg/mL).

And the MIC (Escherichia coli [6])?
Its MIC is 1.6 µM (≈ 3.82 µg/mL).

And the MIC (Salmonella typhi)?
Its MIC is 5 µM (≈ 11.9 µg/mL).

With `CC[C@H](C)[C@H](NC(=O)[C@@H]1CCCN1C(=O)[C@H](CCCNC(=N)N)NC(=O)[C@@H]1CCCN1C(=O)[C@H](Cc1cnc[nH]1)NC(=O)[C@H](CO)NC(=O)[C@@H](NC(=O)[C@@H]1CCCN1C(=O)[C@H](CCCNC(=N)N)NC(=O)[C@@H]1CCCN1C(=O)[C@H](CO)NC(=O)[C@H](Cc1ccc(O)cc1)NC(=O)[C@@H]1CCCN1C(=O)[C@H](CCCNC(=N)N)NC(=O)[C@@H]1CCCN1C(=O)[C@H](CCCCN)NC(=O)CN)[C@@H](C)O[C@@H]1O[C@@H](CO)[C@@H](O)[C@@H](O)[C@@H]1NC(C)=O)C(=O)N[C@@H](CCCNC(=N)N)C(=O)N[C@H](C(=O)O)C(C)C` (H-GKPRPYSPRPT(X1)SHPRPIRV-OH) as the compound, how does the MIC (Escherichia coli [1]) read?
Its MIC is 0.3 µM (≈ 0.721 µg/mL).

What about the Kd [2] of the same compound?
The Kd was 1.53 µM.

What about the MIC (Escherichia coli [3]) of the same compound?
The MIC was 0.2 µM (≈ 0.48 µg/mL).

And the Ka (Escherichia coli [4])?
Its Ka is 1.94 ×10⁴ /M/s.

What about the Kdiss (Escherichia coli [4]) of the same compound?
The Kdiss was 0.0297 s⁻¹.

And the Drug uptake (Escherichia coli [5])?
The Drug uptake was 20%.

What about the MIC (Salmonella typhimurium) of the same compound?
Its MIC is 1.8 µM (≈ 4.32 µg/mL).

And the MIC (Escherichia coli [6])?
The MIC was 0.5 µM (≈ 1.2 µg/mL).

And the MIC (Salmonella typhi)?
The MIC was 1.3 µM (≈ 3.12 µg/mL).

Which MIC (Escherichia coli [1]) does the source give for `CC[C@H](C)[C@H](NC(=O)[C@@H]1CCCN1C(=O)[C@H](CCCNC(=N)N)NC(=O)[C@@H]1CCCN1C(=O)[C@H](Cc1cnc[nH]1)NC(=O)[C@H](CO)NC(=O)[C@@H](NC(=O)[C@@H]1CCCN1C(=O)[C@H](CCCNC(=N)N)NC(=O)[C@@H]1CCCN1C(=O)[C@H](CO)NC(=O)[C@H](Cc1ccc(O)cc1)NC(=O)[C@@H]1CCCN1C(=O)[C@H](CCCNC(=N)N)NC(=O)[C@@H]1CCCN1C(=O)[C@H](CCCCN)NC(=O)CN)[C@@H](C)O[C@H]1O[C@H](CO)[C@H](O)[C@H](O)[C@H]1NC(C)=O)C(=O)N[C@@H](CCCNC(=N)N)C(=O)N[C@H](C(=O)O)C(C)C` (H-GKPRPYSPRPT(αGalNAc)SHPRPIRV-OH) here?
Its MIC is 0.2 µM (≈ 0.48 µg/mL).

And the Kd [2]?
Its Kd is 1.79 µM.

And the MIC (Escherichia coli [3])?
The MIC was 0.2 µM (≈ 0.48 µg/mL).

And the Ka (Escherichia coli [4])?
Its Ka is 2.04 ×10⁴ /M/s.

And the Kdiss (Escherichia coli [4])?
The Kdiss was 0.0366 s⁻¹.

And the Drug uptake (Escherichia coli [5])?
Its Drug uptake is 16%.

What about the MIC (Salmonella typhimurium) of the same compound?
The MIC was 0.3 µM (≈ 0.721 µg/mL).

And the MIC (Escherichia coli [6])?
Its MIC is 0.3 µM (≈ 0.721 µg/mL).

And the MIC (Salmonella typhi)?
The MIC was 0.3 µM (≈ 0.721 µg/mL).

Which results are given for H-GKPRPYSPRPSSHPRPIRV-OH?
MIC (Escherichia coli [1]): 0.4 µM; MIC (Escherichia coli [3]): 0.2 µM; MIC (Salmonella typhimurium): 2 µM; MIC (Escherichia coli [6]): 0.6 µM; MIC (Salmonella typhi): 3 µM

Which MIC (Escherichia coli [1]) does the source give for H-GKPRPYSPRPTSHPRPIRV-OH [DROSOCIN] here?
The MIC was 0.5 µM.

And the MIC (Escherichia coli [3])?
The MIC was 0.4 µM.

And the MIC (Salmonella typhimurium)?
The MIC was 2 µM.

And the MIC (Escherichia coli [6])?
The MIC was 0.7 µM.

And the MIC (Salmonella typhi)?
The MIC was 3 µM.
